Laboratory results reported in patent US20040248208A1, “Screening method” (priority 2001, published 2004).

What was measured:
Type in all cases: cell-based
TGR4 [1] = target: T1, TGR4 (Homo sapiens, UniProt Q9H1C0); experiment: Intracellular calcium ion mobilization activity in TGR4-expressing CHO cells (FLIPR); settings: for EC50: TGR4-expressing CHO cells, 100% = reaction when 2 × 10^−6 M farnesyl 2-phosphate was added, read-out: Intracellular Ca^2+ mobilization activity (EC50); for concentration dependency of intracellular calcium ion mobilization activity: CHO-TGR4 (FIG. 16)
T1 construct: expressed in transfected cells
Procedure: Using TGR4 expression vector prepared in EXAMPLE 1, according to the publicly known method, the CHO cells stably expressing TGR4, which is designated CHO-TGR4, were prepared. CHO-TGR4 or CHO-mock cells, in which no receptor gene is introduced, was seeded to 96-well plate of Black plate, Clear bottom available from Costar at the concentration of 30,000 cells/well. After cultivation at 37° C. in the presence of 5% CO2 for overnight, the cells were used for assay. For washing buffer, Hank's balanced salt solution (HBSS, GibcoBRL) supplemented with 20 mM HEPES (pH7.4) and 2.5 mM probeneside (Sigma) was prepared. For sample buffer, the washing buffer supplemented with 0.1% bovine serum albumin (BSA, Sigma) was used. The washing buffer supplemented with 1% FBS, 4 μM Fluo 3-AM (Wako Pure Chemicals) and 0.04% Pluronic acid (Molecular Probes) was used as a dye loading solution. After discarding the medium, adding the dye loading solution and incubating the cells at 37° C. for 1 hour, using the plate washer, the cells were washed with the washing buffer. The cells were set to Fluorometric Imaging Plate Reader (FLIPR, Molecular Device) and the change of intracellular calcium ion concentration during three minutes after addition of sample was measured. FPP and LPA were added to sample to make a final concentration 2.5 μM each.
As well as the method described in EXAMPLE 7, using TGR4-expressing CHO cells and mock CHO cells, a study on concentration dependency of intracellular calcium ion mobilization activity by substances associated with various phospholipids compounds was made. For substances associated with various phospholipids compounds, geranylgeranyl 2-phosphate, farnesyl 2-phosphate, geranyl 2-phosphate, lysophosphatidic acid, sphingosine 1-phosphate, nordeoxycholic acid, deoxycholic acid, geranylgeranyol, farnesol were used.

TGR4 [2] = target: T1, TGR4; experiment: cAMP production in TGR4-expressing CHO cells; settings: for cAMP production increasing activity dependent on concentration: CHO-TGR4 (FIG. 18); for level of cAMP production: final concentration 2 μM, 30 minutes, CHO-TGR4 versus CHO-mock (FIGS. 7 and 8)
Procedure: The CHO-TGR4 prepared in EXAMPLE 2, or the CHO-mock cells, in which no receptor gene is introduced, were seeded on 96-well plate at the concentration of 25,000 cells/well. After cultivation at 37° C. in the presence of 5% CO2 for overnight, the cells were used for assay. For the sample buffer, HBSS supplemented with 0.1% BSA and 0.2 mM IBMX (Sigma) was used. The cells were washed twice with the sample buffer and pre-incubated at 37° C. for 30 minutes. Thereafter, the cells were also washed twice and incubated at 37° C. for 30 minutes after adding of sample. Farnesyl 2-phosphate or lysophophatidic acid was added to the sample to make a finalconcentration 2 μM. After incubation with the sample, a level of cAMP production was measured using cAMP Screen System (ABI).
As well as the method described in EXAMPLE 8, using TGR4-expressing CHO cells and mock CHO cells, a study on concentration dependency of cAMP production increasing activity by substances associated with various phospholipids compounds was made. […] For abbreviation of compounds, see EXAMPLE 9.

TGR4 [3] = target: T1, TGR4; experiment: Activation of p44/42 MAP kinase in human TGR4-expressing CHO cells; settings: 0.1 μM; TGR4-expressing CHO cells versus mock cells
Procedure: Human TGR4-expressing CHO cells and mock cells were seeded on 6-well plate at the concentration of 3×10^5 cells/well and cultured for overnight. For removal of serum, the medium was replaced with α-MEM including no nucleic acid supplemented with 0.1% BSA, and the cells were further incubated for overnight. Until just before assay, preincubation using the same medium for 2 hours was carried out. By adding 0.1 μM farnesyl 2-phosphate to the medium, the treatment was started. With respect to each given time, the medium was removed by aspiration and the reaction was terminated by addition of sumple buffer for SDS-PAGE. In accordance with conventional manner, SDS-PAGE was done and then the proteins were transferred to nitrocellulose membrane. Following the method described in the manual of Phospho Plus p44/42 MAPK (Thr202/Tyr204) Antibody Kit (Cell Signaling), detection of p44/42 MAP kinase was performed. […] Thus it became clear that the enzyme was activated.

TGR4 [4] = target: T1, TGR4; experiment: CRE-luciferase reporter gene assay in CHO cells transiently expressing TGR4; settings: 4 hours, TGR4 and Gi co-transfected with pCRE-Luc (FIG. 4)
Procedure: The expression vector plasmid pAK-TGR4 or pAK-Gi, which was prepared by inserting TGR4 cDNA or suppressive G protein a subunit Gi cDNA into pAKKO-111H, the expression plasmid vector for animal cells (the same plasmid vector as pAKKO-111H described in Biochem. Biophys. Acta by Hinuma, S. et al., Vol. 1219, pp. 251-259, 1994), and original pAKKO-111H, in which no specific gene was inserted, were transfected into the CHO cells by the following method.
Using these vectors, Escherichia coli JM109 was transformed. A colony obtained was isolated and cultured for preparation of plasmid with QIAGEN Plasmid Maxi Kit (Qiagen). Further, plasmid of pCRE-Luc (CLONTECH), in which luciferase gene is ligated as a reporter downstream cAMP response element (CRE), was prepared in a similar method. The CHO-mock cells, wherein the CHO (dhfr^−0 cells were transformed with pAKKO-111H, were seeded in 96-well black plate (Costar) at 40,000 cells/well and 100 μl of culture volume, and were cultured for overnight. For a culture on the plate, DMEM (Dulbecco's modified Eagle's medium, CibcoBRL) supplemented with nothing but 10% fetal bovine serum was used. In order to detect an increase of expression level of the reporter gene more clearly, the pAK-Gi was co-transfected with the pAK-TGR4. Each plasmid was added to 240 μl of Opti-MEM-I (GibcoBRL) at the ratio of 7:3:1 of pAK-TGR4:pAK-Gi:reporter plasmid pCRE-Luc. This solution was mixed with the same volume of solution wherein 10 μl of Lipofectamine 2000 was added to 240 μl of Opti-MEM-I to form a complex of liposome and plasmid according to the method described in the manual attached to Lipofectamine 2000. To culture of CHO-mock cells, 25 μl/well of the above-mentioned solution was added. After 4 hours at 37° C., a culture broth was replaced to an assay buffer (DMEM supplemented with 0.1% bovine serum albumin) to be serum-free for introduction of the plasmid. Then, these cells were cultured at 37° C. under the condition of 5% CO2 for overnight.
To the CHO-mock cells transfected as described above, geranylgeranyl 2-phosphate (GGPP, Sigma), farnesyl 2-phosphate (FPP, Sigma) and lysophosphatidic acid (LPA, Sigma) were added to the concentration of 1 μM, 0.1 μM, and […], respectively, and incubated at 37° C. under the condition of 5% CO2 for 4 hours. After discarding the supernatant, 50 μl of Picagene LT2.0, the substrate for assaying luciferase activity were added, and luminescence level of luciferase was measured using plate reader (ARVO sx multilabel counter, Wallac).

TGR4-GFP fusion protein = target: T2, TGR4-GFP fusion protein (Homo sapiens, UniProt Q9H1C0); experiment: Intracellular translocation of TGR4-GFP fusion protein expressed in CHO cells; settings: 10^−6 M, thirty minutes after addition
T2 construct: expressed in transfected cells; host or cells: CHO-mock cells (CHO dhfr- transformed with pAKKO-111H), transient, Lipofectamine 2000
Source text: Expression plasmid wherein fusion protein that cDNA encoding Green Fluorescent protein (GFP) isolated from Aequorea coerulescens was ligated to the C-terminus of TGR4 by adjusting a translation frame, was constructed. As GFP cDNA, a fragment excised from GFP-expressing vector pQBI25 (Takara Shuzo) was used. The stop codon of TGR4 was modified to the recognition sequence of restriction enzyme NheI by the PCR method. GFP fragment was ligated to the terminus, and the obtained fragment was inserted into the expression vector pAKKO-111H. The thus obtained plasmid, which is an expression vector for fusion protein of TGR4 and GFP (hereinafter referred to as TGR4-GFP) was transfected to CHO-mock cells by the following method. The CHO-mock cells were suspended in growth medium (DMEM (Dulbecco's Modified Eagle Medium) (GIBCO BRL) supplemented with 10% fetal bovine serum (GIBCO BRL)), seeded on Lab-Tek II coverglass chamber (Nalgen Nunc), which has 4 chambers, at the concentration of 0.6×10^5 cells/chamber. After cultivation at 37° C. in the presence of 5% CO2 for overnight, transfection was carried out. For transfection, Lipofectamine™ 2000 Reagent (GIBCO BRL) was used. Firstly, 2 μl of Lipofectamine™ 2000 Reagent and 50 μl of OPTI-MEM-I (GIBCO BRL) were admixed and stood for 20 minutes at room temperature to form a complex of DNA with lipofectamine. […]

Compound | EC50 (TGR4 [1]) | also measured
C[C@H](CCC(=O)O)[C@H]1CC[C@H]2[C@@H]3CC[C@@H]4C[C@H](O)CC[C@]4(C)[C@H]3C[C@H](O)[C@]12C [Deoxycholic acid] | > 2500 nM | –
CC(C)=CCOP(=O)(O)OP(=O)(O)O [Dimethylaryl 2-phosphate] | > 2500 nM | –
CC(C)=CCC/C(C)=C/COP(=O)(O)OP(=O)(O)O [Geranyl 2-phosphate] | > 2500 nM | –
CC(=O)CC/C=C(\C)CCC=C(C)C [Geranyl acetone] | > 2500 nM | –
CC(C)=CCC/C(C)=C/CCl [Geranylchloride] | > 2500 nM | –
CC(C)=CCC/C(C)=C/CC/C(C)=C/CC/C(C)=C/COP(=O)(O)OP(=O)(O)O [Geranylgeranyl 2-phosphate, geranylgeranyl 2-phosphate] | 19 nM | concentration dependency of intracellular calcium ion mobilization activity (TGR4 [1]): activity dependent on concentration was perceived; cAMP production increasing activity dependent on concentration (TGR4 [2]): activity dependent on concentration was perceived; luciferase activity (TGR4 [4]; 0.1 μM): increase of luciferase activity was detected; luciferase activity (TGR4 [4]; 1 μM): increase of luciferase activity was detected
CC(C)=CCC/C(C)=C/CC/C(C)=C/CC/C(C)=C/CO [Geranylgeranyol] | > 2500 nM | –
C[C@H](CCC(=O)O)[C@H]1CC[C@H]2[C@@H]3CC[C@@H]4C[C@H](O)CC[C@]4(C)[C@H]3CC[C@]12C [Lithocolic acid] | > 2500 nM | –
CCCCCCCCCCCCC/C=C/[C@@H](O)[C@@H](N)COP(=O)(O)O [Sphingosine 1-phosphate] | 1500 nM | –
lysophosphatidic acid | – | level of cAMP production (TGR4 [2]): increased in the manner specific to CHO-TGR4; luciferase activity (TGR4 [4]; 1 μM): increase of luciferase activity was detected

The next lines start with results.

EC50 (TGR4 [1]) | Compound | also measured
> 2500 nM | CC(C)=CCCC(C)=CCCC(C)=CCO [Farnesol] | –
29 nM | CC(C)=CCC/C(C)=C/CC/C(C)=C/COP(=O)(O)OP(=O)(O)O [Farnesyl 2-phosphate, farnesyl 2-phosphate] | concentration dependency of intracellular calcium ion mobilization activity (TGR4 [1]): activity dependent on concentration was perceived; intracellular calcium ion mobilization activity (TGR4 [1]; final concentration 2.5 μM, CHO-TGR4 versus CHO-mock (FIGS. 5 and 6)): increased in the manner specific to CHO-TGR4; cAMP production increasing activity dependent on concentration (TGR4 [2]): activity dependent on concentration was perceived; level of cAMP production (TGR4 [2]): increased in the manner specific to CHO-TGR4; phosphorylation of p44/42 MAP kinase (TGR4 [3]): phosphorylation of MAP kinase specific to human TGR-expressing CHO cells; luciferase activity (TGR4 [4]; 0.1 μM): increase of luciferase activity was detected; luciferase activity (TGR4 [4]; 1 μM): increase of luciferase activity was detected; translocation of TGR4-GFP fluorescence from cell membrane (TGR4-GFP fusion protein): translocated to cytoplasm
> 2500 nM | CC(C)=CCC/C(C)=C/CCC(=O)O [Geranyl acetic acid] | –
> 2500 nM | CC(C)=CCC/C(C)=C/CN [Geranylamine] | –
> 2500 nM | CC(C)=CCC/C(C)=C/CO [Geranyol] | –
> 2500 nM | C[C@H](CC(=O)O)[C@H]1CC[C@H]2[C@@H]3CC[C@@H]4C[C@H](O)CC[C@]4(C)[C@H]3C[C@H](O)[C@]12C [Nordeoxycholic acid] | –
